Experimental data published in ChEMBL document CHEMBL4428112, “Columnaristerol A, a novel 19-norsterol from the Formosan octocoral Nephthea columnaris” (Bioorg Med Chem Lett, 2016).
Activity calls are given as the source filed them. No cut-off for these calls is given here.

Legend:
Type in all cases: functional, cell-based
[1] = tested on: MOLT-4; assay: Cytotoxicity against human MOLT4 cells assessed as growth inhibition after 72 hrs by MTT assay; conditions: MOLT-4, 72 h
[2] = tested on: SUP-T1; assay: Cytotoxicity against human SupT1 cells assessed as growth inhibition after 72 hrs by MTT assay; conditions: SUP-T1, 72 h
[3] = tested on: K562; assay: Cytotoxicity against human K562 cells assessed as growth inhibition at 20 ug/ml after 72 hrs by MTT assay
[4] = tested on: U-937; assay: Cytotoxicity against human U937 cells assessed as growth inhibition at 20 ug/ml after 72 hrs by MTT assay
[5] = tested on: K562; assay: Cytotoxicity against human K562 cells assessed as growth inhibition after 72 hrs by MTT assay; conditions: K562, 72 h
[6] = tested on: U-937; assay: Cytotoxicity against human U937 cells assessed as growth inhibition after 72 hrs by MTT assay; conditions: U-937, 72 h

SMILES	IC50 [1] [nM]	IC50 [2] [nM]	growth inhibition (GI) [3]	growth inhibition (GI) [4]	IC50 [5] [nM]	IC50 [6] [nM]
C=C(CC[C@@H](C)[C@H]1CC[C@H]2[C@@H]3CC=C4C[C@@H](O)CC[C@]4(O)[C@H]3CC[C@]12C)C(C)C	18300	25500	inactive	inactive		
COc1cccc2c1C(=O)c1c(O)c3c(c(O)c1C2=O)C[C@@](O)(C(=O)CO)C[C@@H]3O[C@H]1C[C@H](N)[C@H](O)[C@H](C)O1 [DOXORUBICIN]		40			280	420
